Experimental data as given in patent US7906709B2, “Methods for breeding glyphosate resistant plants and compositions thereof” (priority 2006, dated 2011).

Key:
[1] = system: backcrossed turfgrass samples; test: Glyphosate resistance phenotype of backcrossed turfgrass samples; type: in vivo
Source text: In some embodiments, the germplasm can have more than one glyphosate resistant allele. At least one of the glyphosate resistant alleles is the single nucleotide polymorphism (“SNP”) for the EPSPS gene at nt301 of SEQ. ID. NO. 1. By sequencing of the EPSPS from sensitive and resistant ryegrass biotypes the SNP was identified. A change from cytosine to thymine at this position changes the amino acid from proline to serine. The SNP at nt301 of SEQ. ID. NO. 1 can be used as a marker to identify plants that carry the allele of the resistant form of EPSPS. As shown in Table 1 and highlighted in the Examples below, a second allele can contribute to the glyphosate resistance.
Having both the first allele (the SNP) and the second allele in a plant such as, for example, a turf grass, can increase resistance to glyphosate. In some embodiments, the second allele may be attributed to glyphosate oxidoreductase (“GOX”) enzyme encoded by a GOX gene. Only one of the alleles may be needed to produce a glyphosate resistant plant such as for example, a turfgrass. In some embodiments, the second allele can be identified as the Gly-Rest 2 gene. The Gly-Rest 2 gene encodes a glyphosate resistant protein that can be identified as the Gly-Resist Protein (“GRP”) which is different from the glyphosate resistant EPSPS. To identify which plants have only the GRP protein, the following is an example of an analysis that can be useful. The plants that have been crossed with a known glyphosate resistant parent are grown. A herbicidally effective amount of glyphosate is applied to the plants. The plants that survive the application are selected and a part of the plant is then used to determine if a biomarker for glyphosate resistant EPSPS is present. An example of such an analysis is discussed in the examples below. If the biomarker is present, then the plant has at least glyphosate resistant EPSPS and may have GRP. […] A biomarker analysis for GRP can be designed and designing such an analysis is well within the knowledge of those skilled in the art.

Wild-type Agrobacterium = test: Growth in M-9 media with glyphosate, wild-type; type: cell-based, Agrobacterium tumefaciens; settings: 48 hours
Description: The confirmed plasmid is transformed into Agrobacterium tumefaciens by “freeze thaw technique” using liquid nitrogen. The transformed Agrobacterium is grown in LB plated and maintained 28° C. for 72 h. Some colonies are grown in LB broth for 24 h and tested for the inserted EPSPS gene by PCR. The confirmed Agrobacterium is grown in 50 mL LB broth for 24 h. The Agrobacterium is centrifuged at 5000×g for 10 min, and the pellets are diluted with 2 mL 1.0 M CaCl2. At the same time, a wild-type Agrobacterium is also grown and extracted similar to the transformed Agrobacterium. The Agrobacterium solutions (10 μL) are grown in 50 mL media containing 1×M-9 salt media (SIGMA), 20 mM glucose, 2 mM MgSO4, and glyphosate at 0, 0.25, 0.5, 0.75, 1.0, 1.5, and 2 mM.
The growth (indicated by Optical Density 600 nm) is measured after 48 hours.

R line of rigid ryegrass = test: Dose response study of plant injury, R line; type: in vivo, Lolium rigidum
Description: A dose response study is conducted on the R and S lines of rigid ryegrass. The rates of glyphosate applied varied from 0.125×, 0.25×, 0.5×, 1×, 2×, 4×, 6×, 8×, 10×, to 12×. The sprayed solutions and application procedures are similar to those described previously. Plants are evaluated for visual injury at 4 WAT. Data (4 WAT) from two experiments with 8 replications of each treatment are analyzed by non-linear regression and fitted to a log-logistic model:
[formula] where y is predictive of plant injury (% of control), X50=dose required to obtain 50% injury and b is the slope at X50.

[2] = system: R biotype of the California rigid ryegrass; test: Glyphosate drops on leaves, resistant biotype; type: in vivo, Lolium rigidum; settings: three 2 µl drops on two leaves, corresponds to 1.12 kg ai ha^-1; one week after treatment; ROUNDUP ULTRA (isopropylamine salt)
Description: Rigid ryegrass (Lolium rigidum Gaud.) plants are collected from an almond orchard intensively treated with glyphosate since 1984. The collected plants are grown and seed produced in greenhouse. The resistant, intermediate and susceptible biotypes are selected in the first generation using 1.12, 2.24, and 3.36 kg ai ha^−1 rates of glyphosate. Further selection is continued with a high glyphosate rate (8.96 kg ai ha^−1) to select for the resistant and with the low rate (0.28 kg ai ha^−1) to select for the susceptible individuals. The resistant (R) and susceptible (S) biotypes used in this example are generated from the 5th and 4th cycle, respectively.
R and S biotypes of the California rigid ryegrass are grown individually to the fully vegetatively mature stage prior to seedhead formation. In one experiment, two fully mature leaves of each plant (one R and one S biotypes) are treated with three 2 μl drops of glyphosate (glyphosate isopropylamine salt, ROUNDUP ULTRA™, Monsanto Co., St. Louis, Mo.) solution applied to the upper leaf surface. This corresponds to a field rate of 1.12 kg ai ha^−1 glyphosate at a volume of 187 L ha^−1 and pressure of 172.5 kPa. One week after treatment, the S biotype is dead, but no injury is observed on the R biotype.

In the case of `O=C(O)CNCP(=O)(O)O` [glyphosate, N-(phosphonomethyl) glycine], the “Phenotype (Dead)” value ([1]; sample 1 S control, SNP No) is reported as 1X, the “Phenotype (Dead)” value ([1]; sample 2 R control, SNP Yes) is reported as 8X and the “Phenotype (Dead)” value ([1]; sample 3, SNP No) is reported as 2X. The “Phenotype (Dead)” value ([1]; sample 4, SNP Yes) was 2X, the “Phenotype (Dead)” value ([1]; sample 5, SNP Yes) was 8X and the “Phenotype (Dead)” value ([1]; sample 6, SNP No) was 1X. The “Phenotype (Dead)” value ([1]; sample 7, SNP No) was 4X, the “Phenotype (Dead)” value ([1]; sample 8, SNP No) was 1X and the “Phenotype (Dead)” value ([1]; sample 9, SNP Yes) was 4X. For the same compound, the “Phenotype (Dead)” value ([1]; sample 10, SNP No) was 4X, the “Phenotype (Dead)” value ([1]; sample 11, SNP Yes) was 4X and the “Phenotype (Dead)” value ([1]; sample 12, SNP Yes) was 4X. For the same compound, the “Phenotype (Dead)” value ([1]; sample 13, SNP No) was 1X, the “Phenotype (Dead)” value ([1]; sample 14, SNP No) was 2X and the “Phenotype (Dead)” value ([1]; sample 15, SNP Yes) was 4X. For the same compound, the “Phenotype (Dead)” value ([1]; sample 16, SNP Yes) was 4X, the “Phenotype (Dead)” value ([1]; sample 17, SNP Yes) was 6X and the “Phenotype (Dead)” value ([1]; sample 18, SNP Yes) was 2X. The “Phenotype (Dead)” value ([1]; sample 19, SNP No) was 4X, the “Phenotype (Dead)” value ([1]; sample 20, SNP No) was 4X and the “Phenotype (Dead)” value ([1]; sample 21, SNP No) was 4X. The “Phenotype (Dead)” value ([1]; sample 22 S control, SNP No) was 1X, the “Phenotype (Dead)” value ([1]; sample 23 R control, SNP Yes) was 8X and the “Growth, OD 600 nm” value (Wild-type Agrobacterium; glyphosate 0.25 mM) was 0.236. For the same compound, the “Growth, Percent” value (Wild-type Agrobacterium; glyphosate 0.25 mM) was 37%, the “Growth, OD 600 nm” value (Wild-type Agrobacterium; glyphosate 0.50 mM) was 0.005 and the “Growth, Percent” value (Wild-type Agrobacterium; glyphosate 0.50 mM) was 0.8%. The “Growth, OD 600 nm” value (Wild-type Agrobacterium; glyphosate 0.75 mM) was 0.005, the “Growth, Percent” value (Wild-type Agrobacterium; glyphosate 0.75 mM) was 0.8% and the “Growth, OD 600 nm” value (Wild-type Agrobacterium; glyphosate 1.00 mM) was 0.004. For the same compound, the “Growth, Percent” value (Wild-type Agrobacterium; glyphosate 1.00 mM) was 0.8%, the “Growth, OD 600 nm” value (Wild-type Agrobacterium; glyphosate 1.50 mM) was 0.004 and the “Growth, Percent” value (Wild-type Agrobacterium; glyphosate 1.50 mM) was 0.8%. The “Growth, OD 600 nm” value (Wild-type Agrobacterium; glyphosate 2.00 mM) was 0.004, the “Growth, Percent” value (Wild-type Agrobacterium; glyphosate 2.00 mM) was 0.8% and the survival (R line of rigid ryegrass; R biotype, 8× glyphosate) was “survived”. The “ratio of glyphosate rates between the R and S lines for 50% injury” value (R line of rigid ryegrass; R line versus S line, 4 WAT) was > 100 fold, the “glyphosate rate for 50% injury” value (R line of rigid ryegrass; R line, visual injury 4 WAT, 1× = 1.12 kg ai ha^-1) was 11 × and the Plant injury [2] was “no injury”.
